Results published in patent publication US11840495B2, “Compositions and methods related to di-substituted bicyclo[2.2.1] heptanamine-containing compounds” (The Broad Institute, Inc., priority 2020, dated 2023).
Read-outs that look alike come from different tables or passages of the source.

Tests used:
[1] = system: MUC1-fs; assay: Immunofluorescence imaging of MUC1-fs in P cells (Example 2); format: cell-based; settings: for EC50: 48 hr incubation, MUC1-fs; for ECMax (%) / Emax: 48 hr; for ECMax (%): DMSO = 0, JQ1 (250 nM) = −100% activity; for Emax: DMSO = 0, JQ1 = −100% activity, in %
Description: (§1) P cells were seeded 24 hr prior to compound treatment at a density of 12,000 cells/well in 384 well Cell Carrier Ultra plates (6057308, Perkin Elmer), pre-coated with 0.25 mg/mL Synthemax II SC Substrate (3535, Corning). Compounds were used at 5 doses (35, 3.5, 0.35, 0.035 and 0.0035 μM) for the primary screen and 10 doses (16, 5.6, 1.8, 0.6, 0.21, 0.07, 0.02, 0.008, 0.002 and 0.0008 μM) for the following screens. The compounds, in two replicates, were transferred from compound source plates to the cell plates using the HighRes Pin Tool. DMSO was used as a negative control and JQ1 (250 nM) (a bromodomain inhibitor) was chosen as a positive control, based on earlier studies showing its potent effect on reducing total MUC1 mRNA levels (data not shown). After 48 hr incubation, cells were fixed for 20 min in 4% PFA (Electron Microscopy Sciences) in PBS, washed twice, then permeabilized (10 min) with 0.5% Triton-X100 (X100-100ML, Sigma-Aldrich) in PBS and washed once more. Cells were blocked for 10 min at RT with Blocking solution (100 mM Tris HCL pH8; 150 mM NaCL; 5 g/L Blocking Reagent [11096176001, Roche]), then incubated 90 min at RT with one of the following primary antibodies in Roche Blocking solution: 1:500, monoclonal Fab-A-VSH anti-MUC1-fs, AbD22655.2, Bio-Rad; 1:2000, monoclonal mouse anti-MUC1 (214D4), 05-652-KC, Millipore; 1:1000, monoclonal, Rabbit anti-GM130 (D6B1) XP, 12480, Cell signaling technology. The primary antibody cocktail was incubated at RT for 1.5 hr, followed by four PBS wash cycles. The secondary antibody cocktail contained four components that were all prepared at a 1:1000 dilution in the Roche blocking solution and consisted of Alexa Fluor® 488-conjugated AffiniPure F(ab′)2 Fragment Goat anti-Human IgG, 109-546-097, Jackson Immunoresearch; Alexa Fluor® 647-conjugated Goat anti-Rabbit IgG, A-21246, Thermo Fisher Scientific®; Alexa Fluor® 546 Goat anti-mouse IgG, A-21123, Thermo Fisher Scientific® and Hoechst 33342 stain (62249, Thermo Fisher Scientific®). The secondary antibody cocktail was incubated at RT for 45 min, followed by four PBS wash cycles. Finally, plates were sealed with a Plate Loc plate and stored in Liconic incubator at 10° C. until imaging. Following image analysis, three parameters were selected, i) MUC1-fs and ii) MUC1-wt total cytoplasm intensity (averaged per cell) and iii) cell number as was detected by Hoechst 33342 stained nuclei. The levels of MUC1-fs and MUC1-wt found following DMSO and JQ1 were defined as 0 and −100% activity, respectively. The values obtained for all compounds were normalized accordingly. Cell number was normalized to DMSO control.

[2] = system: MUC1-wt; assay: Immunofluorescence imaging of MUC1-wt in P cells (Example 2); format: cell-based; settings: for EC50: 48 hr incubation, MUC1-wt; for WT ECMax (%) / WT EMax: 48 hr; for WT ECMax (%): DMSO = 0, JQ1 (250 nM) = −100% activity; for WT EMax: DMSO = 0, JQ1 = −100% activity, in %
Description: as §1

Compound	EC50 ([1]; read-out: EC50(Spot))	ECMax (%) [1]	EC50 ([2]; read-out: WT EC50 (Cytoplasm))	WT ECMax (%) [2]	EC50 ([1]; read-out: EC50)	Emax [1]	EC50 ([2]; read-out: WT EC50)	WT EMax [2]	Emax ([1]; hydrochloride)	WT EMax ([2]; hydrochloride)
C[C@@H]1CC[C@@]2(C1)[C@H]1CC[C@H](C1)[C@H]2N.Cl [Compound 210-P1-B]	15.5 µM	−26.85%	> 32 µM	−4.05%	–	–	–	–	–	–
CC1CC[C@]2(C1)[C@H]1CC[C@H](C1)[C@H]2N.Cl (mixture of isomers) [Compound 210]	0.12 µM	−62.47%	> 32 µM	−10.67%	–	–	–	–	–	–
CCCC1(CCC)[C@H]2CC[C@H](C2)[C@H]1N.Cl (racemic) [Compound 205]	> 32 µM	−3.08%	> 32 µM	−12.24%	–	–	–	–	–	–
C[C@H]1CC[C@@]2(C1)[C@@H]1CC[C@@H](C1)[C@@H]2N.Cl [Compound 211-P2-A]	20.1 µM	−23.56%	> 32 µM	3.22%	–	–	–	–	–	–
Cl.NC1(c2ccccc2)C2CCC(C2)C12CCCC2 (racemic) [Compound 250, rac-3-phenylspiro[bicyclo[2.2.1]heptane-2,1′-cyclopentan]-3-amine hydrochloride]	–	–	–	–	7.83 µM	−86.3	> 16 µM	8.2	–	–
Cl.N[C@@H]1[C@@H]2CC[C@@H](C2)[C@]12CC=CCC2 (racemic) [Compound 213]	0.02 µM	−86.49%	> 1.8 µM	~175%	–	–	–	–	–	–
Cl.NC1C2CCC(C2)C12CC=CC2 (racemic) [Compound 248, rac-spiro[bicyclo[2.2.1]heptane-2,1′-cyclopentan]-3′-en-3-amine hydrochloride]	–	–	–	–	0.11 µM	−83.1	9.8 µM	36.5	–	–
(1S,3R,4R)-spiro[bicyclo[2.2.1]heptane-3,1′-cyclopentan]-2-amine hydrochloride [Compound 209-P2]	0.01 µM	−64.28%	2.06 µM	−210%	–	–	–	–	–	–
CC1(CC2CC2)C2CCC(C2)C1N.Cl (racemic) [Compound 243-A, rac-3-(cyclopropylmethyl)-3-methylbicyclo[2.2.1]heptan-2-amine hydrochloride]	–	–	–	–	> 16 µM	–	> 16 µM	–	−40.4	3.2
C[C@@H]1CC[C@]2(C1)[C@@H]1CC[C@@H](C1)[C@@H]2N.Cl [Compound 210-P2-A]	1.04 µM	−62.63%	> 32 µM	−8.9%	–	–	–	–	–	–
NC1C2CCC(C2)C12CCCCC2 [Compound 212-P1, (1R,3S,4S)-spiro[bicyclo[2.2.1]heptane-3,1′-cyclohexan]-2-amine]	1.57 µM	−65.18%	3.01 µM	110.73%	–	–	–	–	–	–
CC1(N)C2CCC(C2)C12CCCC2 (racemic) [Compound 233, rac-3-methylspiro[bicyclo[2.2.1]heptane-2,1′-cyclopentan]-3-amine]	–	–	–	–	0.077 µM	−86.9	> 16 µM	21.8	–	–
CC1(CC2CC2)C2CCC(C2)C1N.Cl (racemic) [Compound 244, rac-3-(cyclopropylmethyl)-3-methylbicyclo[2.2.1]heptan-2-amine hydrochloride]	–	–	–	–	> 16 µM	–	> 16 µM	–	−35.0	−9.0
C[C@@H]1CC[C@@]2(C1)[C@@H]1CC[C@@H](C1)[C@@H]2N.Cl [Compound 211-P2-B]	> 32 µM	−10.93%	> 32 µM	4.75%	–	–	–	–	–	–
COCC1CCCC2(C1)C1CCC(C1)C2N.Cl (racemic) [Compound 225-1, rac-3′-(methoxymethyl)spiro[bicyclo[2.2.1]heptane-2,1′-cyclohexan]-3-amine hydrogen chloride]	–	–	–	–	> 16 µM	−13.3	> 16 µM	−15.8	–	–
C[C@@H]1CCC[C@]2(C1)[C@H]1CC[C@H](C1)[C@H]2N.Cl [Compound 214-P1-A]	10.5 µM	−26.27%	> 32 µM	3.96%	–	–	–	–	–	–
CCC1(CC)[C@H]2CC[C@H](C2)[C@]1(N)c1cccs1.Cl [Compound 247, (1R,2R,4S)-3,3-diethyl-2-(thiophen-2-yl)bicyclo[2.2.1]heptan-2-amine hydrochloride]	–	–	–	–	> 16 µM	−45.8	> 16 µM	5.7	–	–
Cl.NCC1CCCC2(C1)C1CCC(C1)C2N (racemic) [Compound 221, rac-3′-(aminomethyl)spiro[bicyclo[2.2.1]heptane-2,1′-cyclohexan]-3-amine hydrochloride]	–	–	–	–	> 16 µM	16.2	> 16 µM	15.6	–	–
C[C@@H]1CCC[C@@]2(C1)[C@@H]1CC[C@@H](C1)[C@@H]2N.Cl [Compound 214-P2-B]	15.1 µM	−29.12%	> 32 µM	−4.96%	–	–	–	–	–	–
C[C@H]1CC[C@@]2(C1)[C@H]1CC[C@H](C1)[C@H]2N.Cl [Compound 210-P1-A]	26.9 µM	−33.62%	> 32 µM	0.73%	–	–	–	–	–	–
CC(C)[C@@]1(C)[C@H]2CC[C@H](C2)[C@@H]1N.Cl [Compound 246-B, (1R,2S,3S,4S)-3-isopropyl-3-methylbicyclo[2.2.1]heptan-2-amine hydrochloride]	–	–	–	–	6.99 µM	−69.3	> 16 µM	6.2	–	–
C[C@H]1CC[C@]2(C1)[C@H]1CC[C@H](C1)[C@H]2N.Cl [Compound 211-P1-B]	5 µM	−61.55%	> 32 µM	9.31%	–	–	–	–	–	–
C[C@]1(c2ccccc2)[C@H]2CC[C@H](C2)[C@H]1N (racemic) [Compound 218, rac-(1R,2R,3R,4S)-3-methyl-3-phenylbicyclo[2.2.1]heptan-2-amine]	–	–	–	–	13.5 µM	−54.7	> 16 µM	−15.4	–	–
